In US20260144769A1, “4-PHENYLBUTYRATE RESTORED GABA UPTAKE AND REDUCED SEIZURES IN SLC6A1 VARIANT-MEDIATED DISORDERS” (Vanderbilt University, priority 2022, published 2026):

System: GAT-1 in human iPSC-derived neurons
Assay: 3H GABA uptake, human iPSC-derived neurons
Format: cell-based
Details: PBA treated human iPSC-derived neurons; PBA 2 mM, 24 hrs
Protocol: Live images of human neural progenitor cells (NPCs), astrocytes and GABAergic inhibitory neurons differentiated from the human induced pluripotent stem cells (iPSCs) on the day of experiment. […] The DMSO treated corrected or patient cells was taken as 1. […] GABA flux was measured after 30 min transport at room temperature. The influx of GABA, expressed in pmol/μg protein/min, was averaged from duplicates for each condition and for each transfection. The average counting was DMSO treated condition taken as 1. In FIG. 5B, FIG. 5D and FIG. 5F, 966 stands for CI-966 (50 μM) and 711 stands for NNC-711 (35 μM) that was applied 30 min to the astrocytes transfected with the wildtype GAT-1^YFP before preincubation and removed during preincubation. In FIGS. 5B and D, ***p<0.001 vs. corrected DMSO treated. § § <0.01, § § § p<0.001 vs. patient DMSO treated. […] In FIGS. 5B-E, n=4-8 batches of cells. In FIG. 5F, n=4-5 different transfections). Unpaired t test was used for FIG. 5C and FIG. 5E. […] Values were expressed as mean±S.E.M.). […]
Briefly, cells were cultured in […] dishes for 3 days before the GABA uptake experiment in DMEM with 10% fetal bovine serum and 1% penicillin/streptomycin. […] Glacial acetic acid was added, and lysates were then determined on a liquid scintillator with QuantaSmart. […]

SMILES: O=C(O)CCCc1ccccc1 [PBA, 4-phenylbutyric acid]
- increase of GABA uptake: ~20%
